Test results: ChEMBL document CHEMBL3860106, “Identification of the Binding Site of Chroman-4-one-Based Sirtuin 2-Selective Inhibitors using Photoaffinity Labeling in Combination with Tandem Mass Spectrometry” (J Med Chem, 2016)
pIC50: −log10 of the molar value. Calls of active or inactive are those of the source. The rule behind the calls is not given here.

Tests used:
[1] = Photo activation assessed as [photo-decomposition irradiated with 365 nm 23 mW/cm2 UV light using high-power light-emitting diode by 1H and 19F NMR spectroscopy; assay type: physicochemical
[2] = biological target: T1, NAD-dependent protein deacetylase sirtuin-2 (Homo sapiens) (UniProt Q8IXJ6); assay: Inhibition of SIRT2 (unknown origin) at 200 uM by fluorescence-based assay
T1 sequence (whole entry): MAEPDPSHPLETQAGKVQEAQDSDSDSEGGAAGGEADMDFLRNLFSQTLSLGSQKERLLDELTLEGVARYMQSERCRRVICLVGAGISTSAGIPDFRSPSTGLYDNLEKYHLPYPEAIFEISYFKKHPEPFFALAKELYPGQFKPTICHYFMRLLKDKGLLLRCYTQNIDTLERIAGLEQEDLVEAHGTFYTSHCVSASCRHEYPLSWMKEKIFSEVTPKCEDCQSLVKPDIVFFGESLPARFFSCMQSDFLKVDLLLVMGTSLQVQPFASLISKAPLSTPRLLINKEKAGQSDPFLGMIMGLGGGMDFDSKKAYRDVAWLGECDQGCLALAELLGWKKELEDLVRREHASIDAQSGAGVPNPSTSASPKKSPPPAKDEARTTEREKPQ

[3] = biological target: T1, NAD-dependent protein deacetylase sirtuin-2 (Homo sapiens); assay: Binding affinity to recombinant SIRT2 (unknown origin) assessed as detection of tryptic peptide with amino acid sequence 175-IAGLEQEDLVEAHGTFYTSHCVSASCRHEYPLSWMK-210 at 400 uM in presence of NAD+ and peptide substrate by LC-MS/MS method
[4] = biological target: T2, NAD-dependent protein deacetylase sirtuin-2 (Homo sapiens, UniProt Q8IXJ6); assay: Inhibition of SIRT2 (unknown origin) by fluorescence-based assay
T2 sequence (Q8IXJ6 whole entry): T1 sequence (whole entry)

[5] = biological target: T1, NAD-dependent protein deacetylase sirtuin-2 (Homo sapiens); assay: Binding affinity to recombinant SIRT2 (unknown origin) assessed as photoaffinity labeling at H187 residue at 400 uM in presence of NAD+ and peptide substrate by LC-MS/MS method
[6] = Drug metabolism assessed as compound formation using compound 4 irradiated with 365 nm 23 mW/cm2 UV light using high-power light-emitting diode by UV/vis spectroscopy; assay type: ADME

Row | SMILES | Drug metabolism [1] | inhibition [2] | Activity [3] | pIC50 [4] | Activity [5] | Drug uptake [6]
1 | CCCCCC1CC(=O)c2cc(C3(C(F)(F)F)N=N3)ccc2O1 (configuration not stated) | Metabolite_Detected | 78% | Active | 5.09 | Active | –
2 | CCCCCC1CC(=O)c2cc(C(=[N+]=[N-])C(F)(F)F)ccc2O1 (configuration not stated) | – | – | – | – | – | Metabolite_Detected
3 | CCCCCC1CC(=O)c2cc(N=[N+]=[N-])ccc2O1 (configuration not stated) | – | 51% | – | – | – | –
